Test results taken from patent publication US11589584B2, “Synergistic combination of 1,3-bis(hydroxymethyl)-5,5-dimethylimidazolidine-2,4-dione with glyoxal” (MC (US) 3 LLC, priority 2018, dated 2023).

Tested on: Pseudomonas aeruginosa (ATCC 8739) and Escherichia coli (ATCC 10145) mixed microorganism culture
Experiment: Synergy in the planktonic phase: 48 h biocide challenge, regrowth read by turbidity in recovery media
Type: cell-based
Conditions: P. aeruginosa/E. coli mixed inoculum, phosphate buffer pH 7.3, 30° C., 48 hour challenge
Experimental: […] cultures were separately prepared from glycerol stocks. First they were streak plated and validated with a microscope. Single colonies were picked and used to inoculate 200 mL shake flasks that were grown statically overnight at 30° C. (30 grams/L Tryptic Soy Broth) to produce the initial inoculum of mixed microorganism culture. A deep-well 96 well challenge plate (2 mL maximum well volume) was prepared using 900 μL/well phosphate buffer at pH 7.3, (0.0027M potassium chloride, 0.137 M sodium chloride). Inoculation took place at the start of the experiments (with a 100 μL combined inoculum, adding to the 900 μL buffer to total 1 mL/well). […]
The inoculated assay block was challenged at 30° C. for 48 hours. […] This was done in triplicate for each point (the triplicate is already present in the biocide block viz. each point is truly determined in triplicate). […]
The recovery plates were subsequently read (checked for microbial growth) at 72 hours after addition of the culture, to recovery media. Ranking of biocidal efficacy was done by recording the development of turbidity within each well (determined by visual inspection). […] Ranking was done per average value of three data points determined per experiment. (Recorded in log regrowth).
Synergy Ratio Determined Using the Following Formulae. […]

Compound	DMDMH standalone 48 h pass (biocide used alone (QA)) [ppm]	Glyoxal standalone 48 h pass (used alone (QB)) [ppm]
CC1(C)C(=O)N(CO)C(=O)N1CO [DMDMH, 1,3-Bis(hydroxymethyl)-5,5-dimethylimidazolidine-2,4-dione]	420	
O=CC=O [Glyoxal, oxaldehyde]		1800
